Results reported in US20230085307A1, “PYRIDAZINONE COMPOUND AND HERBICIDE” (NISSAN CHEMICAL CORPORATION, priority 2019, published 2023).

What was measured:
chickweed [1] = assay: Test Example 4: herbicidal effect by soil treatment (Table 19, symbol P); format: in vivo, common chickweed (Stellaria media); conditions: amount of applied herbicide 320 g/ha
How it was run: (§1)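 Step 1: sow seeds in sterilized diluvial soil, cover ~1.5 cm. Step 2: spray diluted emulsion onto soil surface at predetermined rate. Step 3: greenhouse, 25–30° C, three weeks. Step 4: grade effect on each plant by earlier criteria.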

southern crabgrass [2] = assay: Test Example 5: herbicidal effect by foliage application, plastic box (Table 20, symbol F); format: in vivo, southern crabgrass (Digitaria ciliaris); conditions: amount of applied herbicide 320 g/ha; foliage application after 14-day growth; evaluated three weeks after application
How it was run: (§2)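 Foliar spray test: emulsion formulation diluted in water to a set application rate, sprayed onto 14-day-old plants raised in diluvial soil at 25° C to 30° C under glass. Both herbicidal effect and crop effect rated visually three weeks later.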

lambsquarters [3] = assay: Test Example 4: herbicidal effect by soil treatment (Table 19, symbol O); format: in vivo, lambsquarters (Chenopodium album); conditions: amount of applied herbicide 320 g/ha
How it was run: as §1

blackgrass [4] = assay: Test Example 4: herbicidal effect by soil treatment (Table 19, symbol J); format: in vivo, blackgrass (Alopecurus myosuroides); conditions: amount of applied herbicide 320 g/ha
How it was run: as §1

redroot pigweed [5] = assay: Test Example 5: herbicidal effect by foliage application, plastic box (Table 20, symbol N); format: in vivo, redroot pigweed (Amaranthus retroflexus); conditions: amount of applied herbicide 320 g/ha; foliage application after 14-day growth; evaluated three weeks after application
How it was run: as §2

velvetleaf [6] = assay: Test Example 5: herbicidal effect by foliage application, plastic box (Table 20, symbol M); format: in vivo, velvetleaf (Abutilon theophrasti); conditions: amount of applied herbicide 320 g/ha; foliage application after 14-day growth; evaluated three weeks after application
How it was run: as §2

persian speedwell [7] = assay: Test Example 5: herbicidal effect by foliage application, plastic box (Table 20, symbol R); format: in vivo, Persian speedwell (Veronica persica); conditions: amount of applied herbicide 320 g/ha; foliage application after 14-day growth; evaluated three weeks after application
How it was run: as §2

wild oat [8] = assay: Test Example 4: herbicidal effect by soil treatment (Table 19, symbol I); format: in vivo, wild oat (Avena fatua); conditions: amount of applied herbicide 320 g/ha
How it was run: as §1

persian speedwell [9] = assay: Test Example 4: herbicidal effect by soil treatment (Table 19, symbol R); format: in vivo, Persian speedwell (Veronica persica); conditions: amount of applied herbicide 320 g/ha
How it was run: as §1

Italian ryegrass [10] = assay: Test Example 4: herbicidal effect by soil treatment (Table 19, symbol K); format: in vivo, Italian ryegrass (Lolium multiflorum); conditions: amount of applied herbicide 320 g/ha
How it was run: as §1

windgrass [11] = assay: Test Example 5: herbicidal effect by foliage application, plastic box (Table 20, symbol L); format: in vivo, windgrass (Apera spica-venti); conditions: amount of applied herbicide 320 g/ha; foliage application after 14-day growth; evaluated three weeks after application
How it was run: as §2

Italian ryegrass [12] = assay: Test Example 5: herbicidal effect by foliage application, plastic box (Table 20, symbol K); format: in vivo, Italian ryegrass (Lolium multiflorum); conditions: amount of applied herbicide 320 g/ha; foliage application after 14-day growth; evaluated three weeks after application
How it was run: as §2

barnyard grass [13] = assay: Test Example 4: herbicidal effect by soil treatment (Table 19, symbol H); format: in vivo, barnyard grass (Echinochloa crus-galli); conditions: amount of applied herbicide 320 g/ha
How it was run: as §1

wild oat [14] = assay: Test Example 5: herbicidal effect by foliage application, plastic box (Table 20, symbol I); format: in vivo, wild oat (Avena fatua); conditions: amount of applied herbicide 320 g/ha; foliage application after 14-day growth; evaluated three weeks after application
How it was run: as §2

lambsquarters [15] = assay: Test Example 5: herbicidal effect by foliage application, plastic box (Table 20, symbol O); format: in vivo, lambsquarters (Chenopodium album); conditions: amount of applied herbicide 320 g/ha; foliage application after 14-day growth; evaluated three weeks after application
How it was run: as §2

velvetleaf [16] = assay: Test Example 4: herbicidal effect by soil treatment (Table 19, symbol M); format: in vivo, velvetleaf (Abutilon theophrasti); conditions: amount of applied herbicide 320 g/ha
How it was run: as §1

Chinese sprangletop = assay: Test Example 3: herbicidal effect by foliage application, Wagner pot (Table 18, symbol D); format: in vivo, chinese sprangletop (Leptochloa chinensis); conditions: 320 g/ha
How it was run: (§3)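 Plants were sown in alluvial soil held under 0.1–0.5 cm standing water and grown 14 days in a greenhouse at 25–30 °C. An emulsifiable formulation, water-diluted to the set dose, was then sprayed onto the foliage, and effects were scored three weeks later using previously defined criteria.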

blackgrass [17] = assay: Test Example 5: herbicidal effect by foliage application, plastic box (Table 20, symbol J); format: in vivo, blackgrass (Alopecurus myosuroides); conditions: amount of applied herbicide 320 g/ha; foliage application after 14-day growth; evaluated three weeks after application
How it was run: as §2

southern crabgrass [18] = assay: Test Example 4: herbicidal effect by soil treatment (Table 19, symbol F); format: in vivo, southern crabgrass (Digitaria ciliaris); conditions: amount of applied herbicide 320 g/ha
How it was run: as §1

redroot pigweed [19] = assay: Test Example 4: herbicidal effect by soil treatment (Table 19, symbol N); format: in vivo, redroot pigweed (Amaranthus retroflexus); conditions: amount of applied herbicide 320 g/ha
How it was run: as §1

rice flat sedge = assay: Test Example 3: herbicidal effect by foliage application, Wagner pot (Table 18, symbol E); format: in vivo, rice flat sedge (Cyperus iria); conditions: 320 g/ha
How it was run: as §3

green foxtail [20] = assay: Test Example 4: herbicidal effect by soil treatment (Table 19, symbol G); format: in vivo, green foxtail (Setaria viridis); conditions: amount of applied herbicide 320 g/ha
How it was run: as §1

green foxtail [21] = assay: Test Example 5: herbicidal effect by foliage application, plastic box (Table 20, symbol G); format: in vivo, green foxtail (Setaria viridis); conditions: amount of applied herbicide 320 g/ha; foliage application after 14-day growth; evaluated three weeks after application
How it was run: as §2

barnyard grass [22] = assay: Test Example 3: herbicidal effect by foliage application, Wagner pot (Table 18, symbol H); format: in vivo, barnyard grass (Echinochloa crus-galli); conditions: 320 g/ha
How it was run: as §3

chickweed [23] = assay: Test Example 5: herbicidal effect by foliage application, plastic box (Table 20, symbol P); format: in vivo, common chickweed (Stellaria media); conditions: amount of applied herbicide 320 g/ha; foliage application after 14-day growth; evaluated three weeks after application
How it was run: as §2

windgrass [24] = assay: Test Example 4: herbicidal effect by soil treatment (Table 19, symbol L); format: in vivo, windgrass (Apera spica-venti); conditions: amount of applied herbicide 320 g/ha
How it was run: as §1

barnyard grass [25] = assay: Test Example 5: herbicidal effect by foliage application, plastic box (Table 20, symbol H); format: in vivo, barnyard grass (Echinochloa crus-galli); conditions: amount of applied herbicide 320 g/ha; foliage application after 14-day growth; evaluated three weeks after application
How it was run: as §2

Cc1nn(C)c(=O)c(-c2c(-c3ccc(Br)cc3)sc3c(C)cccc23)c1O [4-104]
Herbicidal effect by soil treatment, P: chickweed (chickweed [1]): 3 (Herbicidal rate of 40% or more and less than 70%) | Herbicidal effect by foliage application, F: southern crabgrass (southern crabgrass [2]): 0 (Herbicidal rate of 5% or less (almost no effect)) | Herbicidal effect by soil treatment, O: lambsquarters (lambsquarters [3]): 1 (Herbicidal rate of 5% or more and less than 20%) | Herbicidal effect by soil treatment, J: blackgrass (blackgrass [4]): 0 (Herbicidal rate of 5% or less (almost no effect)) | Herbicidal effect by foliage application, N: redroot pigweed (redroot pigweed [5]): 5 (Herbicidal rate of 90% or more (almost completely withered)) | Herbicidal effect by foliage application, M: velvetleaf (velvetleaf [6]): 5 (Herbicidal rate of 90% or more (almost completely withered)) | Herbicidal effect by foliage application, R: persian speedwell (persian speedwell [7]): 5 (Herbicidal rate of 90% or more (almost completely withered)) | Herbicidal effect by soil treatment, I: wild oat (wild oat [8]): 0 (Herbicidal rate of 5% or less (almost no effect)) | Herbicidal effect by soil treatment, R: persian speedwell (persian speedwell [9]): 3 (Herbicidal rate of 40% or more and less than 70%) | Herbicidal effect by soil treatment, K: Italian ryegrass (Italian ryegrass [10]): 0 (Herbicidal rate of 5% or less (almost no effect)) | Herbicidal effect by foliage application, L: windgrass (windgrass [11]): 3 (Herbicidal rate of 40% or more and less than 70%) | Herbicidal effect by foliage application, K: Italian ryegrass (Italian ryegrass [12]): 4 (Herbicidal rate of 70% or more and less than 90%) | Herbicidal effect by soil treatment, H: barnyard grass (barnyard grass [13]): 0 (Herbicidal rate of 5% or less (almost no effect)) | Herbicidal effect by foliage application, I: wild oat (wild oat [14]): 0 (Herbicidal rate of 5% or less (almost no effect)) | Herbicidal effect by foliage application, O: lambsquarters (lambsquarters [15]): 4 (Herbicidal rate of 70% or more and less than 90%) | Herbicidal effect by soil treatment, M: velvetleaf (velvetleaf [16]): 2 (Herbicidal rate of 20% or more and less than 40%) | herbicidal effect on Chinese sprangletop (D) (Chinese sprangletop): 0 (Herbicidal rate of 5% or less (almost no effect)) | Herbicidal effect by foliage application, J: blackgrass (blackgrass [17]): 0 (Herbicidal rate of 5% or less (almost no effect)) | Herbicidal effect by soil treatment, F: southern crabgrass (southern crabgrass [18]): 0 (Herbicidal rate of 5% or less (almost no effect)) | Herbicidal effect by soil treatment, N: redroot pigweed (redroot pigweed [19]): 4 (Herbicidal rate of 70% or more and less than 90%) | herbicidal effect on rice flat sedge (E) (rice flat sedge): 0 (Herbicidal rate of 5% or less (almost no effect)) | Herbicidal effect by soil treatment, G: green foxtail (green foxtail [20]): 0 (Herbicidal rate of 5% or less (almost no effect)) | Herbicidal effect by foliage application, G: green foxtail (green foxtail [21]): 0 (Herbicidal rate of 5% or less (almost no effect)) | herbicidal effect on barnyard grass (H) (barnyard grass [22]): 2 (Herbicidal rate of 20% or more and less than 40%) | Herbicidal effect by foliage application, P: chickweed (chickweed [23]): 5 (Herbicidal rate of 90% or more (almost completely withered)) | Herbicidal effect by soil treatment, L: windgrass (windgrass [24]): 0 (Herbicidal rate of 5% or less (almost no effect)) | Herbicidal effect by foliage application, H: barnyard grass (barnyard grass [25]): 0 (Herbicidal rate of 5% or less (almost no effect))
